Measurements from publication PMC11623267, “Inhibitors of malaria parasite cyclic nucleotide phosphodiesterases block asexual blood-stage development and mosquito transmission” (Science Advances, 2024).

Tests used:
[1] = system: P. falciparum NF54 gametocytes fed to Anopheles stephensi; experiment: Initial SMFA and sporozoite production; assay type: in vivo, Plasmodium falciparum; conditions: for Oocyst and sporozoite formation: 0.5 and 1 μM
Description: P. falciparum NF54 gametocytes were prepared for blood-feeding to mosquitoes according to the method described ([57]), with some slight modifications. Briefly, gametocyte cultures seeded at 2% overall parasitemia and 4% hematocrit were maintained at 37°C for 16 days with daily medium changes. Gametocyte functional viability was assessed by an exflagellation assay at day 14 after induction, observed by light microscopy. Anopheles stephensi (SD500 strain) were reared as described ([58]). Gametocyte aliquots from a single NF54 culture, produced as above, were incubated either with SAL-0010003 or SAL-0010042 in two separate experiments at 100 nM, 500 nM or 1 μM, 1 μM methylene blue (full-block control), or culture medium only (no-drug control) from day 14 to day 16 when SMFA was carried out. Fresh drug-containing medium was provided each day during this exposure. Pots containing 70 to 80 female A. stephensi mosquitoes, aged 2 to 5 days old, were allowed to feed on 500 μl of the respective culture plus drug mixture, presented to each pot in a preheated three-dimensional printed water channel membrane feeder ([59]), until fully fed. Mosquitoes were placed in an incubator at standard conditions. Seven to 8 days after the feed, 10 to 15 mosquitoes were removed and kept under standard conditions for salivary gland dissection on day 14 after feeding. The remaining mosquito midguts were dissected on day […] or day 7, respectively, after the feed in 0.25% mercurochrome stain to determine oocyst counts by light microscopy.

[2] = system: P. falciparum stage V gametocytes (male gamete formation); experiment: Exflagellation (male gamete formation) inhibition assay; assay type: cell-based, Plasmodium falciparum; conditions: for IC50: 48 hours exposure
Method in brief: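 Mature stage V gametocytes (>95%) treated with compound for 48 h (2 μM single point, or fourfold serial dilutions), then exflagellation induced in ookinete medium with 100 μM XA and 20% human serum, compound still present. Exflagellation centres counted by video microscopy at room temperature between 15 and 22.5 min; IC50 from curves normalised to maximum and minimum inhibition.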

[3] = system: P. falciparum stage IV/V gametocytes; experiment: LDH-based gametocyte viability assay; assay type: cell-based, Plasmodium falciparum; conditions: stage IV to V gametocytes
Method in brief: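 Late gametocytes (>95% stage IV/V) at 2% gametocytemia and 1% hematocrit, exposed to compound in triplicate for 72 h at 37°C, then 75% medium change to drug-free medium and another 72 h. Viability from pLDH activity with Malstat reagent (pH 9) plus PES/NBT, absorbance at 620 nm.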

[4] = system: P. falciparum mature stage V gametocytes; experiment: Induction of gametogenesis; assay type: cell-based, Plasmodium falciparum; conditions: 1× IC50, without XA or temperature drop
Description: Mature (>90% stage V) gametocytes were exposed to short-term treatment with two of the 5-benzyl series compounds, SAL-0010042 and SAL-0010003. In the absence of any other stressors (drop in temperature, pH increase, and XA), mature gametocytes were treated at 1× IC50 of either compound, and samples were taken at 15, 30, and 60 min. Giemsa-stained slides were prepared at these time points, and the parasite populations were evaluated morphologically using light microscopy. Male and female gametes were identified or distinguished on the basis of rounding up, shape, and size. Statistical evaluation was performed with paired, two-tailed t test (GraphPad Prism 6.0).

[5] = system: P. falciparum stage V gametocytes (female gamete formation); experiment: Female gamete formation inhibition assay; assay type: cell-based, Plasmodium falciparum; conditions: for IC50: 48 hours exposure
Method in brief: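 P. falciparum gametocytes (>95% stage V) were treated for 48 h with compound at 2 μM or in a fourfold dilution series. Female gamete formation was then triggered by a temperature drop plus 100 μM xanthurenic acid. Gametes were detected with FITC-anti-Pfs25, 30 images per sample were counted manually, and IC50 was fitted after normalisation to maximum and minimum inhibition.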

[6] = Plasmodium falciparum, 2 μM, 48 hours

| Compound | Oocyst and sporozoite formation [1] | % inhibition of exflagellation at 2 μM ([2]; 2 μM, 48 hours) | IC50 [2] | % inhibition gametocyte viability at 15 μM [3] | Time to stimulate gametogenesis of mature stage V gametocytes [4] | % inhibition of female gamete formation at 2 μM ([5]; 2 μM, 48 hours) | IC50 [5] | Infection prevalence and intensity ([1]; 100 nM) | inhibition at 2 µM [2, 6] | IC50 ([2]; Plasmodium falciparum) | inhibition at 2 µM [5, 6] | IC50 ([5]; Plasmodium falciparum) |
| --- | --- | --- | --- | --- | --- | --- | --- | --- | --- | --- | --- | --- |
| CC(C)c1[nH]nc2c(=O)[nH]c(Cc3ccccc3F)nc12 [SAL-0010042] | Few or no oocysts or sporozoites | 95.4 ± 18.0% | 386 nM | 99.6 ± 1.3% | ≤ 15 min | 97.7 ± 0.4% | 238 nM | – | – | – | – | – |
| CC(C)c1n[nH]c2c(=O)[nH]c(Cc3ccc(F)cc3F)nc12 [SAL-0010003] | Few or no oocysts or sporozoites | – | – | 65.4 ± 20.3% | ≤ 15 min | – | – | reduced | 88.4 ± 17% | 404 nM | 71.3 ± 1.5% | 273 nM |
